US10463710B2, “Short synthetic peptide for the treatment and/or prophylaxis of autoimmune and inflammatory disorders” (MacKay Memorial Hospital, priority 2015, dated 2019)
Entries after “also recorded” stand apart in the source; their conditions may differ.

Tests used:
[1] = tested on: Raw264.7 macrophage cells; experiment: in vitro; type: cell-based, murine; conditions: Example 1 results
[2] = in vitro; type: cell-based, murine; conditions: mouse
[3] = tested on: IMQ-induced psoriasis-like skin inflammation; experiment: Mouse model of IMQ-induced psoriasis-like skin inflammation; type: in vivo, BALB/c mice; conditions: topical Clobetasol 0.02%
Procedure: All experimental procedures were approved by the Mackay Memorial Hospital Animal Care and Uses Committee and conducted according to national animal welfare regulations. Psoriasis-like skin inflammation was created by treating mouse skin with Imiquimod (IMQ) in accordance with the procedures described by van der Fits et al (J Immunol. (2009), 182, 5836-5845). Accordingly, each BALB/c mice (8 weeks old) received a daily topical dose of 62.5 mg of commercially available IMQ cream (5%) on the shaved back and the right ear for 6 consecutive days; whereas the control mice (normal group) were treated with a control cream. For treatment, 7-mer analogue was mixed with IMQ cream to a concentration 100 μM.
Keratinocyte proliferation was determined by 5-bromo-2′-deoxyuridine (BrdU) incorporation. BrdU (Sigma-Aldrich) was reconstituted in DMSO as a stock solution of 80 mM. 10 μl of BrdU mixed with 90 μl of PBS was intraperitoneally injected into each mouse for 24 hr prior to euthanasia. Back skin was fixed overnight in 4% paraformaldehyde and embedded in paraffin for immunohistochemistry.
In this example, the efficacy of the present synthetic peptides of Example 1 on IMQ-induced psoriasis-like skin inflammation was investigated. To this purpose, animals (8-week-old mice) were given a daily topical dose of IMQ cream on the shaved back for six consecutive days, so as to induce psoriasis-like skin inflammation and desquamation (FIG. 1; left panel).
Psoriasis is a disease resulted from abnormal keratinocyte proliferation, thus the effects of the present synthetic peptides on the proliferation of keratinocytes were also monitored in accordance with procedures described in the section of “Materials and Methods”. Results are illustrated in FIG. 2.

Row | Compound | bioactivity / inhibitory activity relative to 7-mer (in words) [1] | viability at 24 h, 20 μM ([2]; Raw264.7 cell viability) [%] | other results
1 | CC(=O)N[C@H](C(=O)N[C@@H](CC(C)C)C(=O)N[C@@H](Cc1ccc(O)cc1)C(=O)N[C@@H](CCCNC(=N)N)C(=O)N[C@H](C(=O)N[C@@H](CCCNC(=N)N)C(=O)N[C@@H](CO)C(N)=O)C(C)C)C(C)C [7-mer (D→V), NH2-Val-Leu-Tyr-Arg-Val-Arg-Ser-COOH] | relatively the same bioactivity that is similar to the 7-mer | 56.8 ± 3.53 | bioactivity / inhibitory activity relative to 7-mer (in words) ([1]; listed as 7-mer (D→N)): could sustain 7-mer bioactivity, only partly
2 | CC(=O)N[C@@H](CC(=O)O)C(=O)N[C@@H](CC(C)C)C(=O)N[C@@H](Cc1ccc(O)cc1)C(=O)N[C@@H](CCCNC(=N)N)C(=O)N[C@H](C(=O)N[C@@H](CCC(N)=O)C(=O)N[C@@H](CO)C(N)=O)C(C)C [7-mer (R2→Q), NH2-Asp-Leu-Tyr-Arg-Val-Gln-Ser-COOH] | could sustain 7-mer bioactivity, only partly | 68.4 ± 1.25 | 
3 | CC(=O)N[C@@H](CC(=O)O)C(=O)N[C@@H](CC(C)C)C(=O)N[C@@H](Cc1ccc(O)cc1)C(=O)N[C@@H](CCCNC(=N)N)C(=O)N[C@@H](CC(C)C)C(=O)N[C@@H](CCCNC(=N)N)C(=O)N[C@@H](CO)C(N)=O [7-mer (V→L), NH2-Asp-Leu-Tyr-Arg-Leu-Arg-Ser-COOH] | could sustain 7-mer bioactivity, only partly; also recorded: relatively the same bioactivity that is similar to the 7-mer | 61.1 ± 3.96 | 
4 | CC(=O)N[C@@H](CC(=O)O)C(=O)N[C@H](CC(C)C)C(=O)N[C@@H](Cc1ccc(O)cc1)C(=O)N[C@@H](CCCNC(=N)N)C(=O)N[C@H](C(=O)N[C@@H](CCCNC(=N)N)C(=O)N[C@@H](CO)C(N)=O)C(C)C [7-mer DL, NH2-Asp-(D-Leu)-Tyr-Arg-Val-Arg-Ser-COOH] | lose its biological activity |  | viability at 24 h, 20 μM ([2]; Rar264.7 cell viability): 101 ± 1.48%
5 | CC(=O)N[C@@H](CC(=O)O)C(=O)N[C@@H](CC(C)C)C(=O)N[C@@H](Cc1ccc(O)cc1)C(=O)N[C@@H](CCCNC(=N)N)C(=O)N[C@H](C(=O)N[C@H](CCCNC(=N)N)C(=O)N[C@@H](CO)C(N)=O)C(C)C [7-mer DR2, NH2-Asp-(D-Leu)-Tyr-Arg-Val-(D-Arg)-Ser-COOH] | lose its biological activity |  | viability at 24 h, 20 μM ([2]; Rar264.7 cell viability): 103 ± 2.51%
6 | CC(=O)N[C@@H](CC(=O)O)C(=O)N[C@@H](CC(C)C)C(=O)N[C@@H](Cc1ccc(O)cc1)C(=O)N[C@H](CCCNC(=N)N)C(=O)N[C@H](C(=O)N[C@@H](CCCNC(=N)N)C(=O)N[C@@H](CO)C(N)=O)C(C)C [7-mer DR, NH2-Asp-Leu-Tyr-(D-Arg)-Val-Arg-Ser-COOH] | lose its biological activity |  | viability at 24 h, 20 μM ([2]; Rar264.7 cell viability): 100 ± 2.58%
7 | CC(=O)N[C@@H](CC(=O)O)C(=O)N[C@@H](CC(C)C)C(=O)N[C@@H](Cc1ccc(O)cc1)C(=O)N[C@@H](CCCNC(=N)N)C(=O)N[C@H](C(=O)N[C@@H](CCCNC(=N)N)C(=O)N[C@H](CO)C(N)=O)C(C)C [7-mer DS, NH2-Asp-Leu-Tyr-Arg-Val-Arg-(D-Ser)-COOH] | lose its biological activity |  | viability at 24 h, 20 μM ([2]; Rar264.7 cell viability): 107 ± 2.23%
8 | CC(=O)N[C@@H](CC(=O)O)C(=O)N[C@@H](CC(C)C)C(=O)N[C@H](Cc1ccc(O)cc1)C(=O)N[C@@H](CCCNC(=N)N)C(=O)N[C@H](C(=O)N[C@@H](CCCNC(=N)N)C(=O)N[C@@H](CO)C(N)=O)C(C)C [7-mer DY, NH2-Asp-Leu-(D-Tyr)-Arg-Val-Arg-Ser-COOH] | lose its biological activity |  | viability at 24 h, 20 μM ([2]; Rar264.7 cell viability): 107.5 ± 0.63%
9 | CC(=O)N[C@@H](C)C(=O)N[C@@H](CC(C)C)C(=O)N[C@@H](Cc1ccc(O)cc1)C(=O)N[C@@H](CCCNC(=N)N)C(=O)N[C@H](C(=O)N[C@@H](CCCNC(=N)N)C(=O)N[C@@H](CO)C(N)=O)C(C)C [7-mer Da, NH2-Ala-Leu-Tyr-Arg-Val-Arg-Ser-COOH] | could sustain the inhibitory activity | 52.9 ± 0.84 | 
10 | CC[C@H](C)[C@H](NC(=O)[C@H](CC(=O)O)NC(C)=O)C(=O)N[C@@H](Cc1ccc(O)cc1)C(=O)N[C@@H](CCCNC(=N)N)C(=O)N[C@H](C(=O)N1CCC[C@H]1C(=O)N[C@@H](CO)C(N)=O)C(C)C [7-mer IP, NH2-Asp-Ile-Tyr-Arg-Val-Pro-Ser-COOH] | could sustain 7-mer bioactivity, only partly | 81.7 ± 4.5 | 
11 | CC(=O)N[C@@H](CC(=O)O)C(=O)N[C@@H](CC(C)C)C(=O)N[C@@H](Cc1ccc(O)cc1)C(=O)N[C@@H](CCCCN)C(=O)N[C@H](C(=O)N1CCC[C@H]1C(=O)N[C@@H](CO)C(N)=O)C(C)C [7-mer KP, NH2-Asp-Leu-Tyr-Lys-Val-Pro-Ser-COOH] | could sustain 7-mer bioactivity, only partly | 81.2 ± 3.43 | 
12 | CC(=O)N[C@@H](CC(=O)O)C(=O)N[C@@H](C)C(=O)N[C@@H](Cc1ccc(O)cc1)C(=O)N[C@@H](CCCNC(=N)N)C(=O)N[C@H](C(=O)N[C@@H](CCCNC(=N)N)C(=O)N[C@@H](CO)C(N)=O)C(C)C [7-mer La, NH2-Asp-Ala-Tyr-Arg-Val-Arg-Ser-COOH] | could sustain the inhibitory activity | 57.4 ± 1.71 | 
13 | CSCC[C@H](NC(=O)[C@H](CCCNC(=N)N)NC(=O)[C@H](Cc1ccc(O)cc1)NC(=O)[C@H](CC(C)C)NC(=O)[C@H](CC(=O)O)NC(C)=O)C(=O)N[C@@H](CCCCN)C(=O)N[C@@H](CO)C(N)=O [7-mer MK, NH2-Asp-Leu-Tyr-Arg-Met-Lys-Ser-COOH] | could sustain 7-mer bioactivity, only partly | 81.4 ± 0.64 | 
14 | CC(=O)N[C@@H](CC(N)=O)C(=O)N[C@H](C(=O)N[C@@H](Cc1ccc(O)cc1)C(=O)N[C@@H](CCCNC(=N)N)C(=O)N[C@H](C(=O)N[C@@H](CCCNC(=N)N)C(=O)N[C@@H](CO)C(N)=O)C(C)C)C(C)C [7-mer NV, NH2-Asn-Val-Tyr-Arg-Val-Arg-Ser-COOH] | could sustain 7-mer bioactivity, only partly | 74.8 ± 1.73 | 
15 | CC(=O)N[C@@H](CC(=O)O)C(=O)N[C@@H](CC(C)C)C(=O)N[C@@H](Cc1ccc(O)cc1)C(=O)N[C@@H](CCCNC(=N)N)C(=O)N[C@@H](CCC(N)=O)C(=O)N[C@@H](CCCCN)C(=O)N[C@@H](CO)C(N)=O [7-mer QK, NH2-Asp-Leu-Tyr-Arg-Gln-Lys-Ser-COOH] | could sustain 7-mer bioactivity, only partly | 77.7 ± 3.02 | 
16 | CC(=O)N[C@@H](CC(=O)O)C(=O)N[C@H](C(=O)N[C@@H](Cc1ccccc1)C(=O)N[C@@H](CCCNC(=N)N)C(=O)N[C@H](C(=O)N[C@@H](CCCNC(=N)N)C(=O)N[C@H](C(N)=O)[C@@H](C)O)C(C)C)C(C)C [7-mer VFT, NH2-Asp-Val-Phe-Arg-Val-Arg-Thr-COOH] | could sustain 7-mer bioactivity, only partly; also recorded: relatively the same bioactivity that is similar to the 7-mer | 71.1 ± 2.48 | 
17 | CC[C@H](C)[C@H](NC(=O)[C@H](CCCNC(=N)N)NC(=O)[C@H](Cc1c[nH]c2ccccc12)NC(=O)[C@H](CC(C)C)NC(=O)[C@H](CC(=O)O)NC(C)=O)C(=O)N[C@@H](CCCNC(=N)N)C(=O)N[C@@H](CO)C(N)=O [7-mer WI, NH2-Asp-Leu-Trp-Arg-Ile-Arg-Ser-COOH] | could sustain 7-mer bioactivity, only partly | 77.9 ± 2.87 | 
18 | C[C@H]1C[C@H]2[C@@H]3CCC4=CC(=O)C=C[C@]4(C)[C@@]3(F)[C@@H](O)C[C@]2(C)[C@@]1(O)C(=O)CCl [Clobetasol, reference compound] |  |  | desquamation formation ([3]; FIG. 1): ameliorated desquamation formation; skin atrophy ([3]; entire back of test animals): caused skin atrophy
